Earlier results as cited in paper PMC4703502 (Pharmacology & therapeutics, 2015).
Like-named read-outs stand apart in the source and are kept apart here. Each block holds one molecule with its values, some of them ahead of it.

Key:
[1] = test system: spermatogenesis
[2] = test system: fertility; settings: ref Tash et al., 2008
[3] = test system: inhibin B; settings: in vivo; ref Tash et al., 2008a
[4] = test system: spermatozoa; settings: ref O’Rand & Widgren, 2012

Molecule: BMS-189453
effect on spermatogenesis ([1]; ref Chung et al., 2011): inhibit spermatogenesis

Molecule: CC1(C)CC=C(c2cnc3ccccc3c2)c2cc(C(=O)Nc3ccc(C(=O)O)cc3)ccc21 [BMS-195614]
effect on spermatogenesis ([1]; tested in vivo, ref Chung et al., 2013): no effect

serum levels of inhibin B [3]: fall below measurable levels
Molecule: O=C(O)/C=C/c1nn(Cc2ccc(Cl)cc2Cl)c2cc(C(F)(F)F)ccc12 [Gamendazole]
fertility recovery ([2]; daily treatment with 6 mg/kg during 7 days): 29%
fertility recovery ([2]; rats, 3 mg/kg single oral dose): complete recovery
infertility ([2]; rats, 3 mg/kg single oral dose): not complete infertility

Molecule: O=C(NCCCCCCCCNC(=O)C(Cl)Cl)C(Cl)Cl [WIN 18,446]
effect on spermatogenesis ([1]; ref Amory et al., 2011): completely stops spermatogenesis

B1: SEMG1: semenogelin, seminal plasma protein that binds EPPIN on the sperm surface (protein, UniProt P04279 24-462, looked up)
Semenogelin-1: QKGGSKGRLPSEFSQFPHGQKGQHYSGQKGKQQTESKGSFSIQYTYHVDANDHDQSRKSQQYDLNALHKTTKSQRHLGGSQQLLHNKQEGRDHDKSKGHFHRVVIHHKGGKAHRGTQNPSQDQGNSPSGKGISSQYSNTEERLWVHGLSKEQTSVSGAQKGRKQGGSQSSYVLQTEELVANKQQRETKNSHQNKGHYQNVVEVREEHSSKVQTSLCPAHQDKLQHGSKDIFSTQDELLVYNKNQHQTKNLNQDQQHGRKANKISYQSSSTEERRLHYGENGVQKDVSQSSIYSQTEEKAQGKSQKQITIPSQEQEHSQKANKISYQSSSTEERRLHYGENGVQKDVSQRSIYSQTEKLVAGKSQIQAPNPKQEPWHGENAKGESGQSTNREQDLLSHEQKGRHQHGSHGGLDIVIIEQEDDSDRHLAQHLNNDRNPLFT
decrease in internal calcium levels ([4]; 3μM SEMG1): > 30%
time to decrease in internal pH ([4]; SEMG1 bound to EPPIN on the sperm surface): less than 1 minute
